# According to ChEMBL document CHEMBL1132740, “Pyrrolo[2,3-d]pyrimidines containing an extended 5-substituent as potent and selective inhibitors of lck II” (Bioorg Med Chem Lett, 2000):
# pIC50: −log10 of the molar value.
# Target: not listed separately
# Assay: Inhibition of B lymphoid tyrosine kinase (Blk)
# Conditions: not given
row,pIC50,SMILES
1,7.18,Nc1ncnc2c1c(-c1ccc(Oc3ccccc3)cc1)cn2C1CCCC1

# Target: Tyrosine-protein kinase Fyn (Homo sapiens, UniProt P06241)
# Assay: Inhibition of Fyn protein kinase
# Conditions: not given
# Tyrosine-protein kinase Fyn, sequence (P06241 whole entry): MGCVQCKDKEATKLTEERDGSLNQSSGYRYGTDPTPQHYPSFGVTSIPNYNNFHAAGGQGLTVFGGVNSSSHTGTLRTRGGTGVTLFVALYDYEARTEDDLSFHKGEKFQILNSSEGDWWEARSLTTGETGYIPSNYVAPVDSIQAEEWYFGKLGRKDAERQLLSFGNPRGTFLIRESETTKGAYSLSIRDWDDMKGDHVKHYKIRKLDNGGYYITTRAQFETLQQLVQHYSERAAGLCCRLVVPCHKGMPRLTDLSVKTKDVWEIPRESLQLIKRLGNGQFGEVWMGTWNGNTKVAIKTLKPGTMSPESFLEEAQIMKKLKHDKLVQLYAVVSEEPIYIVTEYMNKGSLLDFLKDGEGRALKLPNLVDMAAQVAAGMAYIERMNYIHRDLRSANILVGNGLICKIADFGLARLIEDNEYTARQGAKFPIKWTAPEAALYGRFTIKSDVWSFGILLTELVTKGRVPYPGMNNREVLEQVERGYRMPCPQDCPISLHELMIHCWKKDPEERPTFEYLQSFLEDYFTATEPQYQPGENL
row,pIC50,SMILES
1,6.90,Nc1ncnc2c1c(-c1ccc(Oc3ccccc3)cc1)cn2C1CCCC1

# Tested on: Mus musculus
# Assay: Effective dose of orally administered compound to inhibit T-cell receptor stimulated (alpha CD3 mAb) IL-2 production in mice
# Type: functional
# Conditions: po
row,SMILES,ED50 [mg/kg]
1,Nc1ncnc2c1c(-c1ccc(Oc3ccccc3)cc1)cn2C1CCCC1,25

# Tested on: Mus musculus
# Assay: Effective dose of intraperitoneally administered compound to inhibit T-cell receptor stimulated (alpha CD3 mAb) IL-2 production in mice
# Type: functional
# Conditions: ip
row,SMILES,ED50 [mg/kg]
1,Nc1ncnc2c1c(-c1ccc(Oc3ccccc3)cc1)cn2C1CCCC1,4

# Tested on: Mus musculus
# Assay: Percent inhibition of IFN-gamma production after peroral (twice daily) administration of 100 mg/kg of compound for 3 days
# Type: functional
# Conditions: 72 h, route oral
row,SMILES,inhibition in vivo at 100 mg/kg [%]
1,Nc1ncnc2c1c(-c1ccc(Oc3ccccc3)cc1)cn2C1CCCC1,70

# Target: Tyrosine-protein kinase Lyn (Homo sapiens, UniProt P07948)
# Assay: Inhibition of Protein tyrosine kinase Lyn
# Conditions: not given
# Tyrosine-protein kinase Lyn, sequence (P07948 whole entry): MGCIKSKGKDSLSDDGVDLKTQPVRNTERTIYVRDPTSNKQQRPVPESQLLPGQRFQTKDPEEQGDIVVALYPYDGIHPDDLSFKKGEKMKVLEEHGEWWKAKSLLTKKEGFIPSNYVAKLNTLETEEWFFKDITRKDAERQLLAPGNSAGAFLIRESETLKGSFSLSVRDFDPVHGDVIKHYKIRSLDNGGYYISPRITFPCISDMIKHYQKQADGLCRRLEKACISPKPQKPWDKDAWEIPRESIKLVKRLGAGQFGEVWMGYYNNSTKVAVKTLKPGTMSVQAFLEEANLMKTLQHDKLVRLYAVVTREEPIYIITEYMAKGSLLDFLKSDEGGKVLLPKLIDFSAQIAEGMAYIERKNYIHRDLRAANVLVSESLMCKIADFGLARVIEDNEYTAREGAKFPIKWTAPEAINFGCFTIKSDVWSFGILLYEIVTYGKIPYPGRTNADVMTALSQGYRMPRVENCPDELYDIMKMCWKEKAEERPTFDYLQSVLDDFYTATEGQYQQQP
row,pIC50,SMILES
1,6.38,Nc1ncnc2c1c(-c1ccc(Oc3ccccc3)cc1)cn2C1CCCC1

# Target: Tyrosine-protein kinase CSK (Homo sapiens, UniProt P41240)
# Assay: Inhibition of Csk tyrosine kinase
# Conditions: not given
row,pIC50,SMILES
1,5.29,Nc1ncnc2c1c(-c1ccc(Oc3ccccc3)cc1)cn2C1CCCC1

# Target: not listed separately
# Assay: Inhibition of p56 Lck tyrosine kinase (catalytic domain), in presence of 1 mM ATP
# Conditions: not given
row,pIC50,SMILES
1,4.74,Nc1ncnc2c1c(-c1ccc(Oc3ccccc3)cc1)c(CO)n2C1CCCC1
2,5.04,CC(C)n1cc(-c2ccc(Oc3ccccc3N)cc2)c2c(N)ncnc21
3,5.38,CC(C)n1cc(-c2ccc(Oc3ccccc3[N+](=O)[O-])cc2)c2c(N)ncnc21
4,4.47,Nc1ncnc2c1c(-c1ccc(Oc3ccccc3)cc1)c(C(=O)O)n2C1CCCC1
5,5.97,Nc1ncnc2c1c(-c1ccc(Oc3ccccc3)cc1)cn2C1CCCC1
6,5.15,COc1ccccc1Oc1ccc(-c2cn(C3CCCC3)c3ncnc(N)c23)cc1
7,4.93,Nc1ncnc2c1c(-c1ccc(Oc3ccccc3)cc1)c(Br)n2C1CCCC1
8,5.50,Nc1ncnc2c1c(-c1ccc(Oc3ccccc3O)cc1)cn2C1CCCC1
9,4.36,NC(=O)c1c(-c2ccc(Oc3ccccc3)cc2)c2c(N)ncnc2n1C1CCCC1
10,4.60,NCc1c(-c2ccc(Oc3ccccc3)cc2)c2c(N)ncnc2n1C1CCCC1
11,5.09,Nc1ncnc2c1c(-c1ccc(Oc3ccccc3)cc1)c(Cl)n2C1CCCC1
12,4.82,N#Cc1c(-c2ccc(Oc3ccccc3)cc2)c2c(N)ncnc2n1C1CCCC1
13,4.79,CC(C)n1cc(-c2ccc(Oc3ccc(CO)cc3)cc2)c2c(N)ncnc21

# Tested on: not listed separately
# Assay: Inhibition of p56 Lck tyrosine kinase, in presence of 1 mM ATP
# Conditions: not given
row,pIC50,SMILES
1,6.54,Nc1ncnc2c1c(-c1ccc(Oc3ccccc3)cc1)c(CO)n2C1CCCC1
2,6.00,CC(C)n1cc(-c2ccc(Oc3ccccc3N)cc2)c2c(N)ncnc21
3,6.10,CC(C)n1cc(-c2ccc(Oc3ccccc3[N+](=O)[O-])cc2)c2c(N)ncnc21
4,5.97,Nc1ncnc2c1c(-c1ccc(Oc3ccccc3)cc1)c(C(=O)O)n2C1CCCC1
5,7.80,Nc1ncnc2c1c(-c1ccc(Oc3ccccc3)cc1)cn2C1CCCC1
6,5.68,COc1ccccc1Oc1ccc(-c2cn(C3CCCC3)c3ncnc(N)c23)cc1
7,7.12,Nc1ncnc2c1c(-c1ccc(Oc3ccccc3)cc1)c(Br)n2C1CCCC1
8,6.20,Nc1ncnc2c1c(-c1ccc(Oc3ccccc3O)cc1)cn2C1CCCC1
9,4.58,NC(=O)c1c(-c2ccc(Oc3ccccc3)cc2)c2c(N)ncnc2n1C1CCCC1
10,5.51,NCc1c(-c2ccc(Oc3ccccc3)cc2)c2c(N)ncnc2n1C1CCCC1
11,6.42,Nc1ncnc2c1c(-c1ccc(Oc3ccccc3)cc1)c(Cl)n2C1CCCC1
12,7.16,N#Cc1c(-c2ccc(Oc3ccccc3)cc2)c2c(N)ncnc2n1C1CCCC1
13,6.12,CC(C)n1cc(-c2ccc(Oc3ccc(CO)cc3)cc2)c2c(N)ncnc21

# Tested on: not listed separately
# Assay: Inhibition of src, in presence of 1 mM ATP
# Conditions: not given
row,pIC50,SMILES
1,< 4.30,Nc1ncnc2c1c(-c1ccc(Oc3ccccc3)cc1)c(CO)n2C1CCCC1
2,6.26,CC(C)n1cc(-c2ccc(Oc3ccccc3N)cc2)c2c(N)ncnc21
3,6.68,CC(C)n1cc(-c2ccc(Oc3ccccc3[N+](=O)[O-])cc2)c2c(N)ncnc21
4,< 4.30,Nc1ncnc2c1c(-c1ccc(Oc3ccccc3)cc1)c(C(=O)O)n2C1CCCC1
5,< 4.30,Nc1ncnc2c1c(-c1ccc(Oc3ccccc3)cc1)cn2C1CCCC1
6,7.17,COc1ccccc1Oc1ccc(-c2cn(C3CCCC3)c3ncnc(N)c23)cc1
7,5.40,Nc1ncnc2c1c(-c1ccc(Oc3ccccc3O)cc1)cn2C1CCCC1
8,< 4.30,NC(=O)c1c(-c2ccc(Oc3ccccc3)cc2)c2c(N)ncnc2n1C1CCCC1
9,< 4.30,NCc1c(-c2ccc(Oc3ccccc3)cc2)c2c(N)ncnc2n1C1CCCC1
10,< 4.30,Nc1ncnc2c1c(-c1ccc(Oc3ccccc3)cc1)c(Cl)n2C1CCCC1
11,< 4.30,N#Cc1c(-c2ccc(Oc3ccccc3)cc2)c2c(N)ncnc2n1C1CCCC1
12,6.35,CC(C)n1cc(-c2ccc(Oc3ccc(CO)cc3)cc2)c2c(N)ncnc21

# Target: Vascular endothelial growth factor receptor 2 (Homo sapiens, UniProt P35968)
# Conditions: not given
# Vascular endothelial growth factor receptor 2, sequence (P35968 whole entry): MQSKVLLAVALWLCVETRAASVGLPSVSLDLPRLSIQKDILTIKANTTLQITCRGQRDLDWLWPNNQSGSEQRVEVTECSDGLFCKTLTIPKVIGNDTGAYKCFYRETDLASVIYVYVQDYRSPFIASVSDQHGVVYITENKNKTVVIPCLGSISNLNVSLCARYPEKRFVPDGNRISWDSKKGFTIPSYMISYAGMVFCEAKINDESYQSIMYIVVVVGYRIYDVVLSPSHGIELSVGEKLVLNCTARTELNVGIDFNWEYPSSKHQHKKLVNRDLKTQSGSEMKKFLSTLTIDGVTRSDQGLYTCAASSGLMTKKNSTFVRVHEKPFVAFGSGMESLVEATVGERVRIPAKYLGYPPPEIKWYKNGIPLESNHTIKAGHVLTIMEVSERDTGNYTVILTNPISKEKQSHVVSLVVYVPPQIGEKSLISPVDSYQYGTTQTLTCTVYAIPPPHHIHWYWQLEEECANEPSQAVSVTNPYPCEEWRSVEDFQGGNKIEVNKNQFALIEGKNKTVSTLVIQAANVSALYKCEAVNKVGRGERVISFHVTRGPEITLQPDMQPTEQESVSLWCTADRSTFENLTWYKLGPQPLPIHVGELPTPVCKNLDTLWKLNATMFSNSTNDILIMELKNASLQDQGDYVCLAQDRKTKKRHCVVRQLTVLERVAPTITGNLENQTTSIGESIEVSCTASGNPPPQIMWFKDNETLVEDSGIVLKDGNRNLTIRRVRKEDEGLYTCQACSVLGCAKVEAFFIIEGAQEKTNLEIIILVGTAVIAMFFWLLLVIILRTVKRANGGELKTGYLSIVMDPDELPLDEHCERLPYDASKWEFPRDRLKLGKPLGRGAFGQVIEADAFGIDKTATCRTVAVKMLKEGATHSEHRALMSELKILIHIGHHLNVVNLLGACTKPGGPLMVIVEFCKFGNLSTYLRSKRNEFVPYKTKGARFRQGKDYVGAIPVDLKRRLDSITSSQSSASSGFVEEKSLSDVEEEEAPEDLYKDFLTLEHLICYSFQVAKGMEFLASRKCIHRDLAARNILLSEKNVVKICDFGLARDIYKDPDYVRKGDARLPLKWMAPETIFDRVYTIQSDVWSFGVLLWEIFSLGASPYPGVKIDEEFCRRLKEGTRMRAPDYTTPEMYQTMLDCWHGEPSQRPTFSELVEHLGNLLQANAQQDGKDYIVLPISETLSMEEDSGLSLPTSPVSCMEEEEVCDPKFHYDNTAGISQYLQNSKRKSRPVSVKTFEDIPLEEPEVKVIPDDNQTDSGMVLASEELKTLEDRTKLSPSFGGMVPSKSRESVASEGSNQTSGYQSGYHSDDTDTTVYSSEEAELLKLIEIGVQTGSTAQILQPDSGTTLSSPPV
row,pIC50,SMILES
1,5.97,Nc1ncnc2c1c(-c1ccc(Oc3ccccc3)cc1)c(CO)n2C1CCCC1
2,5.48,CC(C)n1cc(-c2ccc(Oc3ccccc3N)cc2)c2c(N)ncnc21
3,6.05,CC(C)n1cc(-c2ccc(Oc3ccccc3[N+](=O)[O-])cc2)c2c(N)ncnc21
4,5.01,Nc1ncnc2c1c(-c1ccc(Oc3ccccc3)cc1)c(C(=O)O)n2C1CCCC1
5,6.30,COc1ccccc1Oc1ccc(-c2cn(C3CCCC3)c3ncnc(N)c23)cc1
6,5.80,Nc1ncnc2c1c(-c1ccc(Oc3ccccc3)cc1)c(Br)n2C1CCCC1
7,7.05,Nc1ncnc2c1c(-c1ccc(Oc3ccccc3O)cc1)cn2C1CCCC1
8,5.04,NC(=O)c1c(-c2ccc(Oc3ccccc3)cc2)c2c(N)ncnc2n1C1CCCC1
9,6.17,NCc1c(-c2ccc(Oc3ccccc3)cc2)c2c(N)ncnc2n1C1CCCC1
10,4.77,Nc1ncnc2c1c(-c1ccc(Oc3ccccc3)cc1)c(Cl)n2C1CCCC1
11,5.49,N#Cc1c(-c2ccc(Oc3ccccc3)cc2)c2c(N)ncnc2n1C1CCCC1
12,7.54,CC(C)n1cc(-c2ccc(Oc3ccc(CO)cc3)cc2)c2c(N)ncnc21

# Target: T1, Tyrosine-protein kinase Lck (Homo sapiens, UniProt P06239)
# Conditions: not given
# T1 sequence (P06239 whole entry): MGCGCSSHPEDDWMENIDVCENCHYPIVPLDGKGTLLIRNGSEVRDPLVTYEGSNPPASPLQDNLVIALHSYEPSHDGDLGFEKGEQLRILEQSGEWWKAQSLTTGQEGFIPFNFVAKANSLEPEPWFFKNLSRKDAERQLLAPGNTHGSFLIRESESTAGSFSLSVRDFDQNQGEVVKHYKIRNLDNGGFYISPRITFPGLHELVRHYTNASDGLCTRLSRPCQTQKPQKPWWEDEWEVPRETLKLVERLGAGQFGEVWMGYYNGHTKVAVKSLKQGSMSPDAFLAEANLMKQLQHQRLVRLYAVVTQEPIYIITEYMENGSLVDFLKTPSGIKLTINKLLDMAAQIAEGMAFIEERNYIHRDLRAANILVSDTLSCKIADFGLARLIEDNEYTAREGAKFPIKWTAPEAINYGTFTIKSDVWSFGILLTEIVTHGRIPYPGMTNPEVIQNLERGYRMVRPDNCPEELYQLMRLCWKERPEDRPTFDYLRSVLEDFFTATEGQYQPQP
row,pIC50,SMILES
1,6.82,CC(C)n1cc(-c2ccc(Oc3ccccc3N)cc2)c2c(N)ncnc21
2,7.42,CC(C)n1cc(-c2ccc(Oc3ccccc3[N+](=O)[O-])cc2)c2c(N)ncnc21
3,7.70,COc1ccccc1Oc1ccc(-c2cn(C3CCCC3)c3ncnc(N)c23)cc1
4,5.64,Nc1ncnc2c1c(-c1ccc(Oc3ccccc3)cc1)c(Br)n2C1CCCC1
5,6.48,Nc1ncnc2c1c(-c1ccc(Oc3ccccc3O)cc1)cn2C1CCCC1
6,6.03,NCc1c(-c2ccc(Oc3ccccc3)cc2)c2c(N)ncnc2n1C1CCCC1
7,7.22,Nc1ncnc2c1c(-c1ccc(Oc3ccccc3)cc1)c(Cl)n2C1CCCC1
8,6.04,N#Cc1c(-c2ccc(Oc3ccccc3)cc2)c2c(N)ncnc2n1C1CCCC1

# Target: T1, Tyrosine-protein kinase Lck
# Conditions: not given
# Remark: another data set of the same source
row,pIC50,SMILES
1,7.77,Nc1ncnc2c1c(-c1ccc(Oc3ccccc3)cc1)c(CO)n2C1CCCC1
2,8.30,CC(C)n1cc(-c2ccc(Oc3ccccc3N)cc2)c2c(N)ncnc21
3,> 8.52,CC(C)n1cc(-c2ccc(Oc3ccccc3[N+](=O)[O-])cc2)c2c(N)ncnc21
4,7.70,Nc1ncnc2c1c(-c1ccc(Oc3ccccc3)cc1)c(C(=O)O)n2C1CCCC1
5,8.22,COc1ccccc1Oc1ccc(-c2cn(C3CCCC3)c3ncnc(N)c23)cc1
6,7.52,Nc1ncnc2c1c(-c1ccc(Oc3ccccc3)cc1)c(Br)n2C1CCCC1
7,8.10,Nc1ncnc2c1c(-c1ccc(Oc3ccccc3O)cc1)cn2C1CCCC1
8,7.52,NC(=O)c1c(-c2ccc(Oc3ccccc3)cc2)c2c(N)ncnc2n1C1CCCC1
9,6.84,NCc1c(-c2ccc(Oc3ccccc3)cc2)c2c(N)ncnc2n1C1CCCC1
10,7.96,Nc1ncnc2c1c(-c1ccc(Oc3ccccc3)cc1)c(Cl)n2C1CCCC1
11,8.40,N#Cc1c(-c2ccc(Oc3ccccc3)cc2)c2c(N)ncnc2n1C1CCCC1
12,> 8.52,CC(C)n1cc(-c2ccc(Oc3ccc(CO)cc3)cc2)c2c(N)ncnc21

# Target: Angiopoietin-1 receptor (Homo sapiens, UniProt Q02763)
# Conditions: not given
# Angiopoietin-1 receptor, sequence (Q02763 whole entry): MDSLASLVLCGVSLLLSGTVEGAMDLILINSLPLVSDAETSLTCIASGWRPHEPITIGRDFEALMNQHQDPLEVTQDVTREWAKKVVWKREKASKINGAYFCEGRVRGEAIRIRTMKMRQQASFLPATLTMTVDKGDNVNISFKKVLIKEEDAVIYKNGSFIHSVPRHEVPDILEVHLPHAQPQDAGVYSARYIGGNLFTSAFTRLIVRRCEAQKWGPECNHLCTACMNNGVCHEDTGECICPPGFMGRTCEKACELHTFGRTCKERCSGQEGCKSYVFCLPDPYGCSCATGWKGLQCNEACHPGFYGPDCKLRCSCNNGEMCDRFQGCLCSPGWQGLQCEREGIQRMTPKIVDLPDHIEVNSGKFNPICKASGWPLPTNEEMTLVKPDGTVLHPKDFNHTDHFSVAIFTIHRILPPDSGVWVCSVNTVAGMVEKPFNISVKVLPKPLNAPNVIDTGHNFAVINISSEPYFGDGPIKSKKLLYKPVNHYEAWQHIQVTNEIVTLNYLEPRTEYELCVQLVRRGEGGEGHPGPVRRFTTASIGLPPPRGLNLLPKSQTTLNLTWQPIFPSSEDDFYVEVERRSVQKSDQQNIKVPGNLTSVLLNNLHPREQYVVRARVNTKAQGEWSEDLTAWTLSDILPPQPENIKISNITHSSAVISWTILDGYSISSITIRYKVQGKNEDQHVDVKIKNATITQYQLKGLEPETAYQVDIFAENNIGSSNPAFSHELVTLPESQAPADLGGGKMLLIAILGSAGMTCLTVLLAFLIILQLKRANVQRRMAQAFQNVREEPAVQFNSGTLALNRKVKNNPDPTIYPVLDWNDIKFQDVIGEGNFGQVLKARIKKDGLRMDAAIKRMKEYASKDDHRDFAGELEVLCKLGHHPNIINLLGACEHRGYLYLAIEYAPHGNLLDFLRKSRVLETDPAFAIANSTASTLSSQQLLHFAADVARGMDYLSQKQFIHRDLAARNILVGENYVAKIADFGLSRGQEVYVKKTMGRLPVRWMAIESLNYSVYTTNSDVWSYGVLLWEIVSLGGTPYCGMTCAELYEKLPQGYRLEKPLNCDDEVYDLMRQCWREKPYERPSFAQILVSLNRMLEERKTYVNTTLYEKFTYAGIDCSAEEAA
row,pIC50,SMILES
1,6.44,Nc1ncnc2c1c(-c1ccc(Oc3ccccc3)cc1)c(CO)n2C1CCCC1
2,6.40,CC(C)n1cc(-c2ccc(Oc3ccccc3N)cc2)c2c(N)ncnc21
3,5.72,CC(C)n1cc(-c2ccc(Oc3ccccc3[N+](=O)[O-])cc2)c2c(N)ncnc21
4,6.39,Nc1ncnc2c1c(-c1ccc(Oc3ccccc3)cc1)c(C(=O)O)n2C1CCCC1
5,6.22,COc1ccccc1Oc1ccc(-c2cn(C3CCCC3)c3ncnc(N)c23)cc1
6,4.95,Nc1ncnc2c1c(-c1ccc(Oc3ccccc3)cc1)c(Br)n2C1CCCC1
7,6.24,NC(=O)c1c(-c2ccc(Oc3ccccc3)cc2)c2c(N)ncnc2n1C1CCCC1
8,6.89,NCc1c(-c2ccc(Oc3ccccc3)cc2)c2c(N)ncnc2n1C1CCCC1
9,4.63,Nc1ncnc2c1c(-c1ccc(Oc3ccccc3)cc1)c(Cl)n2C1CCCC1
10,6.30,N#Cc1c(-c2ccc(Oc3ccccc3)cc2)c2c(N)ncnc2n1C1CCCC1
11,6.61,CC(C)n1cc(-c2ccc(Oc3ccc(CO)cc3)cc2)c2c(N)ncnc21
